The values that follow come from patent publication US7527935B2, “G-protein coupled receptor having eicosanoid as ligand and gene thereof” (Mitsubishi Tanabe Pharma Corporation, priority 2002, dated 2009).

The test system of this experiment is PC3 human prostate cancer cells. The experiment in a line: Apoptosis analysis (annexin V / PI flow cytometry) in PC3 cells. The note with it: 20 μl of 100 μM 5-oxo-ETE added together with DHA, 2 hours. It is filed as cell-based. The procedure:
PC3 human prostate cancer cells, which had been cultured in RPMI1640 culture medium supplemented with 10% fetal bovine serum were dissociated by trypsin-EDTA solution (GibcoBRL), and suspended in RPMI1640 culture medium supplemented with 0.5% fetal bovine serum. The cells were plated onto a 6 cm Petri dish to 2×10^5 cells/dish, and cultured at 37° C. for 18 hours in a CO2 incubator. The supernatant was removed and 1980 μl of the same medium was added, and 20 μl of 1 mM DHA was further added thereto, and the mixture was cultured at 37° C. for 2 hours in a CO2 incubator.
In addition, as a test in the presence of 5-oxo-ETE, 1960 μl of RPMI1640 culture medium supplemented with 0.5% fetal bovine serum was added, and 20 μl of a 100 μM 5-oxo-ETE solution and 20 μl of a 1 mM DHA solution were further added thereto, and the cells were cultured in a similar manner as described above.
The adhered cells were removed by a cell scraper, transferred to a 1.5 ml tube, and centrifuged at 800×g for 5 minutes at 4° C., to collect suspended and adhered cells. […] The cells were suspended in 100 μl of a FITC-Annexin solution, and after 15 minutes of reaction under light-shielded condition at room temperature, 300 μl of Binding buffer was added thereto, and the FITC-Annexin bound to the cells and propidium iodide (PI) uptake into the cells were measured, by means of flow cytometer [Becton Dickinson].

Take `CCCCC/C=C\C/C=C\C/C=C\C=C\C(=O)CCCC(=O)O` [5-oxo-ETE, 5-oxo-6E,8Z,11Z,14Z-eicosatetraenoic acid]: the “effect on DHA induction of apoptosis” value is on record as “the induction of apoptosis was inhibited”.
